# Reference: ChEMBL document CHEMBL1145224, “Novel 1beta-methylcarbapenems with isoxazoloethenyl moieties containing carboxylic acid sodium salt” (Bioorg Med Chem Lett, 2005)
# Tests used:
# Streptococcus pneumoniae [1] = experiment: Minimum inhibitory concentration against Streptococcus pneumoniae (n=22); (Range = 0.008-0.25); type: functional
# Escherichia coli [2] = experiment: Minimum inhibitory concentration against Escherichia coli 1507 E strain; type: functional
# Salmonella typhimurium = experiment: Minimum inhibitory concentration against Salmonella Typhimurium; type: functional, Salmonella enterica subsp. enterica serovar Typhimurium; conditions: Salmonella enterica
# Escherichia coli [3] = experiment: Minimum inhibitory concentration against Escherichia coli 078 strain; type: functional
# Enterobacter cloacae = experiment: Minimum inhibitory concentration against Enterobacter cloacae 1321E strain; type: functional
# Klebsiella aerogenes = experiment: Minimum inhibitory concentration against Klebsiella aerogenes 1522E strain; type: functional
# Streptococcus pyogenes = experiment: Minimum inhibitory concentration against Streptococcus pyogenes 308A strain; type: functional
# Pseudomonas aeruginosa [4] = experiment: Minimum inhibitory concentration against was determined against Pseudomonas aeruginosa 9027 strain; type: functional
# Pseudomonas aeruginosa [5] = experiment: Minimum inhibitory concentration against Pseudomonas aeruginosa 1592E strain; type: functional
# Pseudomonas aeruginosa [6] = experiment: Minimum inhibitory concentration against Pseudomonas aeruginosa 1771M strain; type: functional
# Staphylococcus aureus [7] = experiment: Minimum inhibitory concentration against […] 285 strain; type: functional
# Staphylococcus aureus [8] = experiment: Minimum inhibitory concentration against […] 503 strain; type: functional
# Pseudomonas aeruginosa [9] = experiment: Minimum inhibitory concentration against Pseudomonas aeruginosa (n=60); (Range=0.06-128); type: functional
# Klebsiella pneumoniae [10] = experiment: Minimum inhibitory concentration against Klebsiella pneumoniae (n=30); (Range = 0.015-0.25); type: functional
# Moraxella catarrhalis [11] = experiment: Minimum inhibitory concentration against Moraxella catarrhalis (n=22); (Range=0.015-0.06); type: functional
# Streptococcus pneumoniae [12] = experiment: Minimum inhibitory concentration of the compound was determined against Streptococcus pneumoniae (n=22);(Range = 0.008-0.25); type: functional
# [13] = Clearance value at a single intravenous administration of 5 mg/kg in dog; type: ADME, organism-based, Canis lupus familiaris; set-up: dose 5 mg/kg, route intravenous; conditions: in vivo
# [14] = Clearance value at a single intravenous administration of 20 mg/kg in rat; type: ADME, organism-based; set-up: dose 20 mg/kg, route intravenous; conditions: in vivo
# [15] = Half life at a single intravenous administration of 5 mg/kg in dog; type: ADME, organism-based, Canis lupus familiaris; set-up: dose 5 mg/kg, route intravenous; conditions: in vivo
# [16] = Half life at a single intravenous administration of 20 mg/kg in rat; type: ADME, organism-based; set-up: dose 20 mg/kg, route intravenous; conditions: in vivo
# [17] = Area under concentration time at a single intravenous administration of 5 mg/kg in dog; type: ADME, organism-based, Canis lupus familiaris; set-up: dose 5 mg/kg, route intravenous; conditions: in vivo
# [18] = Area under concentration time at a single intravenous administration of 20 mg/kg in rat; type: ADME, organism-based; set-up: dose 20 mg/kg, route intravenous; conditions: in vivo
# Moraxella catarrhalis [19] = experiment: Minimum inhibitory concentration against Moraxella catarrhalis (n=22); (Range=0.008-0.6); type: functional
# Klebsiella pneumoniae [20] = experiment: Minimum inhibitory concentration against Klebsiella pneumoniae (n=30); (Range = 0.03-0.25); type: functional
# Moraxella catarrhalis [21] = experiment: Minimum inhibitory concentration against Moraxella catarrhalis (n=22); (Range=0.008-0.06); type: functional
# Pseudomonas aeruginosa [22] = experiment: Minimum inhibitory concentration against Pseudomonas aeruginosa (n=60); (Range=0.025-128); type: functional
# Klebsiella pneumoniae [23] = experiment: Minimum inhibitory concentration against Klebsiella pneumoniae (n=30); (Range = […]); type: functional
# Moraxella catarrhalis [24] = experiment: Minimum inhibitory concentration against Moraxella catarrhalis (n=22); (Range=0.008-0.12); type: functional
# Pseudomonas aeruginosa [25] = experiment: Minimum inhibitory concentration against Pseudomonas aeruginosa (n=60); (Range=1-128); type: functional
# Klebsiella pneumoniae [26] = experiment: Minimum inhibitory concentration against Klebsiella pneumoniae (n=30); (Range=0.008-1); type: functional
# Moraxella catarrhalis [27] = experiment: Minimum inhibitory concentration against Moraxella catarrhalis (n=22); (Range = 0.008-0.12); type: functional
# Streptococcus pneumoniae [28] = experiment: Minimum inhibitory concentration against Streptococcus pneumoniae (n=22); (Range=0.008-1); type: functional
# Klebsiella pneumoniae [29] = experiment: Minimum inhibitory concentration against Klebsiella pneumoniae (n=30); (Range=[…]); type: functional
# Klebsiella pneumoniae [30] = experiment: Minimum inhibitory concentration against Klebsiella pneumoniae (n=30); (Range=0.06-1); type: functional
# Pseudomonas aeruginosa [31] = experiment: Minimum inhibitory concentration against Pseudomonas aeruginosa (n=60); (Range=0.5-128); type: functional
# Streptococcus pneumoniae [32] = experiment: Minimum inhibitory concentration against Streptococcus pneumoniae (n=22); (Range = 0.008-0.5); type: functional
# Moraxella catarrhalis [33] = experiment: Minimum inhibitory concentration against Moraxella catarrhalis (n=22); (Range=0.008-0.25); type: functional
# Pseudomonas aeruginosa [34] = experiment: microbe, parasite or virus in culture
# Moraxella catarrhalis [35] = experiment: microbe, parasite or virus in culture
# Klebsiella pneumoniae [36] = experiment: Minimum inhibitory concentration against Klebsiella pneumoniae (n=30); (Range = 0.015-0.06); type: functional
# Moraxella catarrhalis [37] = experiment: Minimum inhibitory concentration against Moraxella catarrhalis (n=22); (Range=0.008-0.03); type: functional
Structure (SMILES),MIC90 (Streptococcus pneumoniae [1]) [µg/mL],MIC (Escherichia coli [2]) [µg/mL],MIC (Salmonella typhimurium) [µg/mL],MIC (Escherichia coli [3]) [µg/mL],MIC (Enterobacter cloacae) [µg/mL],MIC (Klebsiella aerogenes) [µg/mL],MIC (Streptococcus pyogenes) [µg/mL],MIC (Pseudomonas aeruginosa [4]) [µg/mL],MIC (Pseudomonas aeruginosa [5]) [µg/mL],MIC (Pseudomonas aeruginosa [6]) [µg/mL],MIC (Staphylococcus aureus [7]) [µg/mL],MIC (Staphylococcus aureus [8]) [µg/mL],MIC50 (Pseudomonas aeruginosa [9]) [µg/mL],MIC90 (Pseudomonas aeruginosa [9]) [µg/mL],clearance [13] [mL/min/kg],clearance [14] [mL/min/kg],half-life [15] [min],half-life [16] [min],AUC [17] [ng·h/mL],AUC [18] [ng·h/mL],also measured
C[C@@H](O)[C@H]1C(=O)N2C(C(=O)O)=C(S[C@@H]3CN[C@H](/C=C/c4cc(C(=O)[O-])no4)C3)[C@H](C)[C@H]12.[Na+],0.12,0.025,0.049,0.013,0.025,0.049,0.049,0.195,0.195,0.049,0.195,0.195,4,64,6,13,41,12,14400,25300,MIC50 (Klebsiella pneumoniae [10]): 0.03 µg/mL; MIC90 (Klebsiella pneumoniae [10]): 0.12 µg/mL; MIC50 (Moraxella catarrhalis [11]): 0.03 µg/mL; MIC90 (Moraxella catarrhalis [11]): 0.06 µg/mL; MIC50 (Streptococcus pneumoniae [12]): 0.008 µg/mL
C[C@@H](O)[C@H]1C(=O)N2C(C(=O)O)=C(S[C@@H]3CN[C@H](/C=C/c4cc(C(=O)[O-])on4)C3)[C@H](C)[C@H]12.[Na+],–,0.025,0.049,0.025,0.025,0.049,0.007,0.195,0.391,1.56,0.195,0.098,–,–,–,–,–,–,–,–,–
"CC1C(S[C@@H]2CN[C@H](/C=C/c3ccno3)C2)=C(C(=O)O)N2C(=O)[C@H]([C@@H](C)O)[C@@H]12 (single isomer, unassigned)",0.12,0.025,0.049,0.025,0.025,0.049,0.004,0.195,0.195,0.098,0.049,0.098,–,–,27,18,23,16,3100,18900,MIC90 (Moraxella catarrhalis [19]): 0.03 µg/mL; MIC50 (Streptococcus pneumoniae [1]): 0.03 µg/mL; MIC50 (Klebsiella pneumoniae [20]): 0.06 µg/mL; MIC90 (Klebsiella pneumoniae [20]): 0.12 µg/mL; MIC50 (Moraxella catarrhalis [21]): 0.015 µg/mL; MIC50 (Pseudomonas aeruginosa [22]): 8 µg/mL; MIC90 (Pseudomonas aeruginosa [22]): 64 µg/mL
C[C@@H](O)[C@H]1C(=O)N2C(C(=O)O)=C(S[C@@H]3CN[C@H](C(=O)Nc4cccc(C(=O)O)c4)C3)[C@H](C)[C@H]12 [ERTAPENEM],–,–,–,–,–,–,–,–,–,–,–,–,–,–,–,–,–,–,–,–,MIC90 (Klebsiella pneumoniae [23]): 0.5 µg/mL; MIC90 (Moraxella catarrhalis [24]): 0.03 µg/mL; MIC50 (Pseudomonas aeruginosa [25]): 32 µg/mL; MIC90 (Pseudomonas aeruginosa [25]): 128 µg/mL; MIC50 (Klebsiella pneumoniae [26]): 0.03 µg/mL; MIC50 (Moraxella catarrhalis [27]): 0.015 µg/mL; MIC50 (Streptococcus pneumoniae [28]): 0.5 µg/mL; MIC90 (Streptococcus pneumoniae [28]): 1 µg/mL
C[C@@H](O)[C@H]1C(=O)N2C(C(=O)O)=C(SCCNC=N)C[C@H]12 [IMIPENEM ANHYDROUS],–,0.098,0.781,0.098,0.098,0.195,0.004,0.391,0.781,0.195,0.013,0.098,–,–,–,–,–,–,–,–,MIC90 (Klebsiella pneumoniae [29]): 0.5 µg/mL; MIC50 (Klebsiella pneumoniae [30]): 0.12 µg/mL; MIC50 (Pseudomonas aeruginosa [31]): 2 µg/mL; MIC50 (Streptococcus pneumoniae [32]): 0.12 µg/mL; MIC90 (Streptococcus pneumoniae [32]): 0.25 µg/mL; MIC50 (Moraxella catarrhalis [33]): 0.06 µg/mL; MIC90 (Pseudomonas aeruginosa [34]): 16 µg/mL; MIC90 (Moraxella catarrhalis [35]): 0.06 µg/mL
C[C@@H](O)[C@H]1C(=O)N2C(C(=O)O)=C(S[C@@H]3CN[C@H](C(=O)N(C)C)C3)[C@H](C)[C@H]12 [MEROPENEM],–,0.025,0.049,0.025,0.025,0.049,0.013,0.195,0.195,0.049,0.195,–,2,16,7,52,–,–,11600,6380,MIC50 (Klebsiella pneumoniae [36]): 0.03 µg/mL; MIC90 (Klebsiella pneumoniae [36]): 0.06 µg/mL; MIC50 (Moraxella catarrhalis [37]): 0.008 µg/mL; MIC90 (Moraxella catarrhalis [37]): 0.008 µg/mL; MIC50 (Streptococcus pneumoniae [32]): 0.5 µg/mL; MIC90 (Streptococcus pneumoniae [32]): 0.5 µg/mL
